The NIST ThermoML archive (doi:10.1021/je400056z)

Assay: xn = mol fraction of the nth substance listed
Conditions: Liquid, Vibrating tube method

CCCCCCC [heptane] + O=C=O
Conditions | mass density [kg/m3]
342.68 K, 16006 kPa, x2 = 0.0218 | 661.28
342.68 K, 17003 kPa, x2 = 0.0218 | 662.36
342.68 K, 18003 kPa, x2 = 0.0218 | 663.38
342.68 K, 19002 kPa, x2 = 0.0218 | 664.4
342.68 K, 20005 kPa, x2 = 0.0218 | 665.4
342.68 K, 21007 kPa, x2 = 0.0218 | 666.43
342.68 K, 22003 kPa, x2 = 0.0218 | 667.43
342.68 K, 23010 kPa, x2 = 0.0218 | 668.42
342.68 K, 24005 kPa, x2 = 0.0218 | 669.41
342.68 K, 25003 kPa, x2 = 0.0218 | 670.37
342.71 K, 13106 kPa, x2 = 0.9496 | 500.65
342.71 K, 13985 kPa, x2 = 0.9496 | 541.93
342.71 K, 15012 kPa, x2 = 0.9496 | 579.95
342.71 K, 16000 kPa, x2 = 0.9496 | 609.5
342.71 K, 17009 kPa, x2 = 0.9496 | 634.13
342.71 K, 17984 kPa, x2 = 0.9496 | 654.42
342.71 K, 18996 kPa, x2 = 0.9496 | 672.31
342.71 K, 19994 kPa, x2 = 0.9496 | 687.85
342.71 K, 20999 kPa, x2 = 0.9496 | 701.79
342.71 K, 22001 kPa, x2 = 0.9496 | 714.18
342.71 K, 23009 kPa, x2 = 0.9496 | 725.67
342.71 K, 23985 kPa, x2 = 0.9496 | 735.74
342.71 K, 24518 kPa, x2 = 0.9496 | 740.87
342.73 K, 8002 kPa, x2 = 0.5085 | 670.04
342.73 K, 9011 kPa, x2 = 0.5085 | 673.34
342.73 K, 10003 kPa, x2 = 0.5085 | 676.47
342.73 K, 11006 kPa, x2 = 0.5085 | 679.46
342.73 K, 12005 kPa, x2 = 0.5085 | 682.3
342.73 K, 13011 kPa, x2 = 0.5085 | 685.03
342.73 K, 14001 kPa, x2 = 0.5085 | 687.62
342.73 K, 15001 kPa, x2 = 0.5085 | 690.13
342.73 K, 16006 kPa, x2 = 0.5085 | 692.58
342.73 K, 17007 kPa, x2 = 0.5085 | 694.92
342.73 K, 17999 kPa, x2 = 0.5085 | 697.18
342.73 K, 19004 kPa, x2 = 0.5085 | 699.4
342.73 K, 20003 kPa, x2 = 0.5085 | 701.54
342.73 K, 21007 kPa, x2 = 0.5085 | 703.69
342.73 K, 22001 kPa, x2 = 0.5085 | 705.73
342.73 K, 23008 kPa, x2 = 0.5085 | 707.8
342.73 K, 23998 kPa, x2 = 0.5085 | 709.81
342.73 K, 25003 kPa, x2 = 0.5085 | 711.79
351.97 K, 7006 kPa, x2 = 0.3148 | 652.07
351.97 K, 8006 kPa, x2 = 0.3148 | 654.34
351.97 K, 9004 kPa, x2 = 0.3148 | 656.45
351.97 K, 10010 kPa, x2 = 0.3148 | 658.6
351.97 K, 11002 kPa, x2 = 0.3148 | 660.62
351.97 K, 12003 kPa, x2 = 0.3148 | 662.65
351.97 K, 13003 kPa, x2 = 0.3148 | 664.59
351.97 K, 14001 kPa, x2 = 0.3148 | 666.48
351.97 K, 15008 kPa, x2 = 0.3148 | 668.29
351.97 K, 15998 kPa, x2 = 0.3148 | 670.12
351.97 K, 17018 kPa, x2 = 0.3148 | 671.87
351.97 K, 17988 kPa, x2 = 0.3148 | 673.47
351.97 K, 19003 kPa, x2 = 0.3148 | 675.21
351.97 K, 20004 kPa, x2 = 0.3148 | 676.85
351.97 K, 21004 kPa, x2 = 0.3148 | 678.45
351.97 K, 22002 kPa, x2 = 0.3148 | 680.02
351.97 K, 22992 kPa, x2 = 0.3148 | 681.54
351.97 K, 23999 kPa, x2 = 0.3148 | 683.05
351.97 K, 25008 kPa, x2 = 0.3148 | 684.53
352.3 K, 12013 kPa, x2 = 0.7514 | 641.2
352.3 K, 13001 kPa, x2 = 0.7514 | 649.87
352.3 K, 14004 kPa, x2 = 0.7514 | 657.71
352.3 K, 15036 kPa, x2 = 0.7514 | 665.3
352.3 K, 16003 kPa, x2 = 0.7514 | 671.66
352.3 K, 17017 kPa, x2 = 0.7514 | 677.97
352.3 K, 18016 kPa, x2 = 0.7514 | 683.63
352.3 K, 18998 kPa, x2 = 0.7514 | 689.01
